Data taken from patent US20240174603A1 (Rappta Therapeutics Oy, priority 2021, published 2024).

Tested on: LNCaP cells
Experiment: LNCaP cell viability assay (MTS)
Assay type: cell-based
Settings: LNCaP cell line
Procedure: LNCaP cell line was used for the cell viability assay. LNCaP cells were plated in 96-well plates at a density of 5000 cells per well. After 24 hours of plating, the cells were treated with increasing doses of compound (e.g., compounds 1-269) ranging from 1 μM to 80 μM. Relative cell numbers were analyzed after 48 hours using 3-(4,5-dimethylthiazol-2-yl)-5-(3-carboxymethoxyphenyl)-2-(4-sulfophenyl)-2H-tetrazolium (MTS) assay (Promega) according to the manufacturer's instructions.
The cell viability data was analyzed with GraphPad Prism software. The values were log transformed and analyzed with non-linear regression (curve-fit) using log(inhibitor) vs. response-variable slope (four parameters) and constraining the bottom to equal zero. Unless otherwise indicated, the GI50 values provided in Table 113 correspond to the LNCaP cell viability assays.

| Compound | GI50 (Homo sapiens, LNCaP, 48 h) [µM] | GI50 (48 hours) [µM] |
| --- | --- | --- |
| COc1ccc([C@@H]2[C@@H](CNS(=O)(=O)c3ccc(OC(F)(F)F)cc3)CCN2C)cc1 (racemic) [Compound 106, Rac-N-(((2S,3R)-2-(4-methoxyphenyl)-1-methylpyrrolidin-3-yl)methyl)-4-(trifluoromethoxy)benzenesulfonamide] | 24 |  |
| O=S(=O)(NC(c1cc(Cl)cc(Cl)c1)C1CCCCC1)c1ccc(OC(F)(F)F)cc1 (single isomer, unassigned) [Compound 140, N-(cyclohexyl(3,5-dichlorophenyl)methyl)-4-(trifluoromethoxy)benzenesulfonamide] | 19 |  |
| O=S(=O)(NC(c1cc(Cl)cc(Cl)c1)C1CCCCC1)c1ccc(OC(F)(F)F)cc1 (single isomer, unassigned) [Compound 141, N-(cyclohexyl(3,5-dichlorophenyl)methyl)-4-(trifluoromethoxy)benzenesulfonamide] |  | 21.3 |
| O=S(=O)(NC(CC1CC1)c1ccc(F)cc1Br)c1ccc(OC(F)(F)F)cc1 (single isomer, unassigned) [Compound 142a, N-(1-(2-bromo-4-fluorophenyl)-2-cyclopropylethyl)-4-(trifluoromethoxy)benzenesulfonamide] | 80 |  |
| O=S(=O)(NC(CC1CC1)c1ccc(F)cc1Br)c1ccc(OC(F)(F)F)cc1 (single isomer, unassigned) [Compound 142b, N-(1-(2-bromo-4-fluorophenyl)-2-cyclopropylethyl)-4-(trifluoromethoxy)benzenesulfonamide] |  | 49.6 |
| CN(C)CC(NS(=O)(=O)c1ccc(OC(F)(F)F)cc1)c1ccc(Cl)c(Cl)c1 (single isomer, unassigned) [Compound 148, N-(1-(3,4-dichlorophenyl)-2-(dimethylamino)ethyl)-4-(trifluoromethoxy)benzenesulfonamide] | 12.7 |  |
| CN(C)CC(NS(=O)(=O)c1ccc(OC(F)(F)F)cc1)c1ccc(Cl)c(Cl)c1 (single isomer, unassigned) [Compound 149, N-(1-(3,4-dichlorophenyl)-2-(dimethylamino)ethyl)-4-(trifluoromethoxy)benzenesulfonamide] |  | 23.9 |
| CN(C)CC(NS(=N)(=O)c1ccc(OC(F)(F)F)cc1)c1ccc(Cl)c(Cl)c1 (single isomer, unassigned) [Compound 165a, N-(1-(3,4-dichlorophenyl)-2-(dimethylamino)ethyl)-4-(trifluoromethoxy)benzenesulfonimidamide] | 46.3 |  |
| CN(C)CC(NS(=N)(=O)c1ccc(OC(F)(F)F)cc1)c1ccc(Cl)c(Cl)c1 (single isomer, unassigned) [Compound 165b, N-(1-(3,4-dichlorophenyl)-2-(dimethylamino)ethyl)-4-(trifluoromethoxy)benzenesulfonimidamide] |  | 53.8 |
| CN(C)CC(NS(=O)(=O)c1ccc(Oc2ccccc2)cc1)c1ccc(Cl)c(Cl)c1 (single isomer, unassigned) [Compound 170, N-(1-(3,4-dichlorophenyl)-2-(dimethylamino)ethyl)-4-phenoxybenzenesulfonamide] | 13.3 |  |
| CN(C)CC(NS(=O)(=O)c1ccc(Oc2ccccc2)cc1)c1ccc(Cl)c(Cl)c1 (single isomer, unassigned) [Compound 171, N-(1-(3,4-dichlorophenyl)-2-(dimethylamino)ethyl)-4-phenoxybenzenesulfonamide] |  | 15.8 |
| CN(C)CC(NS(=O)(=O)c1ccc(Oc2ccc(C(F)(F)F)cc2)cc1)c1ccc(Cl)c(Cl)c1 (single isomer, unassigned) [Compound 172, N-(1-(3,4-dichlorophenyl)-2-(dimethylamino)ethyl)-4-(4-(trifluoromethyl)phenoxy)benzenesulfonamide] |  | 6.04 |
| CN(C)CC(NS(=O)(=O)c1ccc(Oc2ccc(C(F)(F)F)cc2)cc1)c1ccc(Cl)c(Cl)c1 (single isomer, unassigned) [Compound 173, N-(1-(3,4-dichlorophenyl)-2-(dimethylamino)ethyl)-4-(4-(trifluoromethyl)phenoxy)benzenesulfonamide] |  | 13 |
| CN(C)CC(NS(=O)(=O)c1ccc(OC(F)(F)F)cc1)c1cccc(C(F)(F)F)c1 (single isomer, unassigned) [Compound 177, N-(2-(dimethylamino)-1-(3-(trifluoromethyl)phenyl)ethyl)-4-(trifluoromethoxy)benzenesulfonamide] |  | 24.9 |
| CN(C)CC(NS(=O)(=O)c1ccc(OC(F)(F)F)cc1)c1cccc(C(F)(F)F)c1 (single isomer, unassigned) [Compound 178, N-(2-(dimethylamino)-1-(3-(trifluoromethyl)phenyl)ethyl)-4-(trifluoromethoxy)benzenesulfonamide] |  | 51.2 |
| CN(C)CC(NS(=O)(=O)c1ccc(OC(F)(F)F)cc1)c1ccc(Cl)cc1 (single isomer, unassigned) [Compound 179, N-(1-(4-chlorophenyl)-2-(dimethylamino)ethyl)-4-(trifluoromethoxy)benzenesulfonamide] | 43.1 |  |
| CN(C)CC(NS(=O)(=O)c1ccc(OC(F)(F)F)cc1)c1ccc(Cl)cc1 (single isomer, unassigned) [Compound 180, N-(1-(4-chlorophenyl)-2-(dimethylamino)ethyl)-4-(trifluoromethoxy)benzenesulfonamide] |  | 51.3 |
| CN(C)CC(NS(=O)(=O)c1ccc(-c2ccccc2)cc1)c1ccc(Cl)c(Cl)c1 (single isomer, unassigned) [Compound 195, N-(1-(3,4-dichlorophenyl)-2-(dimethylamino)ethyl)-[1,1′-biphenyl]-4-sulfonamide] | 11.9 |  |
| CN(C)CC(NS(=O)(=O)c1ccc(-c2ccccc2)cc1)c1ccc(Cl)c(Cl)c1 (single isomer, unassigned) [Compound 196, N-(1-(3,4-dichlorophenyl)-2-(dimethylamino)ethyl)-[1,1′-biphenyl]-4-sulfonamide] |  | 15.9 |
| CN(C)CC(NS(=O)(=O)c1cccc(-c2ccccc2)c1)c1ccc(Cl)c(Cl)c1 (single isomer, unassigned) [Compound 197, N-(1-(3,4-dichlorophenyl)-2-(dimethylamino)ethyl)-[1,1′-biphenyl]-3-sulfonamide] | 19.3 |  |
| CN(C)CC(NS(=O)(=O)c1cccc(-c2ccccc2)c1)c1ccc(Cl)c(Cl)c1 (single isomer, unassigned) [Compound 198, N-(1-(3,4-dichlorophenyl)-2-(dimethylamino)ethyl)-[1,1′-biphenyl]-3-sulfonamide] |  | 12.5 |
| CCCc1ccc(S(=O)(=O)NC(CN(C)C)c2ccc(Cl)c(Cl)c2)cc1 (single isomer, unassigned) [Compound 199, N-(1-(3,4-dichlorophenyl)-2-(dimethylamino)ethyl)-4-propylbenzenesulfonamide] | 14.4 |  |
| CCCc1ccc(S(=O)(=O)NC(CN(C)C)c2ccc(Cl)c(Cl)c2)cc1 (single isomer, unassigned) [Compound 200, N-(1-(3,4-dichlorophenyl)-2-(dimethylamino)ethyl)-4-propylbenzenesulfonamide] |  | 17.8 |
| CN(C)CC(NS(=O)(=O)c1ccc(OC(F)(F)F)c(Cl)c1)c1ccc(Cl)c(Cl)c1 (single isomer, unassigned) [Compound 201, 3-chloro-N-(1-(3,4-dichlorophenyl)-2-(dimethylamino)ethyl)-4-(trifluoromethoxy)benzenesulfonamide] | 22.8 |  |
